{
  "source": "paper PMC7125978",
  "about": "(Bioorganic & Medicinal Chemistry, 2010)",
  "key": {"HCV (Huh-5–2)": {"test_system": "HCV (Huh-5–2)", "experiment": "HCV subgenomic replicon luciferase assay in Huh 5-2 cells", "type": "cell-based, hepatitis C virus (HCV)"}, "[1]": {"test_system": "Influenza A/H3N2 subtype (MDCK)", "type": "cell-based, influenza virus type A (H3N2)"}, "uninfected cells": {"test_system": "uninfected cells", "conditions": "for Cytotoxicity MCC: minimum cytotoxic concentration, microscopically detectable alteration of cell morphology"}, "Punta toro virus (Vero)": {"test_system": "Punta toro virus (Vero)", "experiment": "microbe, parasite or virus in culture", "type": "cell-based"}, "CEM cell extract": {"test_system": "CEM cell extract", "experiment": "Prodrug conversion in crude cell extracts", "type": "in vitro ADME, human", "conditions": "for efficiency of conversion among the prodrugs: similar trend in HeLa and MDCK cell extracts"}, "[2]": {"test_system": "Respiratory syncytial virus (HeLa)", "type": "cell-based, respiratory syncytial virus (RSV) strain Long", "conditions": "relative to ribavirin (1)"}, "several viruses": {"test_system": "several viruses", "type": "cell-based"}, "Vaccinia virus (HEL)": {"test_system": "Vaccinia virus (HEL)", "type": "cell-based, vaccinia virus Lederle strain"}, "[3]": {"conditions": "cell extract, 37 °C, after 60 min of incubation"}},
  "data": [
    {"smiles": "C[C@H](NP(=O)(OC[C@H]1O[C@@H](n2cnc(C(N)=O)n2)[C@H](O)[C@@H]1O)Oc1cccc2ccccc12)C(=O)OCc1ccccc1", "note": "(stereo partly drawn) [Compound 13, ribavirin-5′-[1-naphthyl(benzoxy-L-alaninyl)] phosphate]", "values": [
      {"measurement": "potency relative to ribavirin, HCV subgenomic replicon replication", "setting": "HCV (Huh-5–2)", "value": "equipotent to ribavirin"},
      {"measurement": "fold lower potency than ribavirin, influenza virus", "setting": "[1]", "value": "~2", "unit": "fold"},
      {"measurement": "Cytotoxicity MCC", "setting": "uninfected cells", "value": ">100", "unit": "µM"},
      {"measurement": "EC50", "setting": "Punta toro virus (Vero); Punta Toro virus, Vero, read-out: Antiviral activity EC50, Punta toro virus (Vero)", "value": "> 100", "unit": "µM"},
      {"measurement": "conversion of isomer tR 19.3 min to metabolite tR 20.2 min", "setting": "CEM cell extract; cell extract, 37 °C, before second isomer (tR 19.0 min) started to be converted", "value": "≥ 95", "unit": "%"},
      {"measurement": "fold less active than ribavirin, respiratory syncytial virus", "setting": "[2]", "value": "about threefold"}
    ]},
    {"smiles": "NC(=O)c1ncn([C@@H]2O[C@H](COP(=O)(N[C@@H](Cc3ccccc3)C(=O)OCc3ccccc3)Oc3cccc4ccccc34)[C@@H](O)[C@H]2O)n1", "note": "(stereo partly drawn) [Compound 14, ribavirin-5’-[1-naphthyl(benzoxy-L-phenylalaninyl)] phosphate]", "values": [
      {"measurement": "antiviral activity, all the viruses tested", "setting": "several viruses", "value": "no or borderline activity"},
      {"measurement": "Cytotoxicity MCC", "setting": "uninfected cells", "value": ">100", "unit": "µM"},
      {"measurement": "conversion of both diastereoisomers (not separable) to metabolite tR 20.2 min", "setting": "CEM cell extract; CEM cell extract, 37 °C, within 20 min", "value": 80, "unit": "%"},
      {"measurement": "efficiency of conversion among the prodrugs", "setting": "CEM cell extract; CEM cell extract", "value": "most efficiently converted"}
    ]},
    {"smiles": "NC(=O)c1ncn([C@@H]2O[C@H](COP(=O)(NCC(=O)OCc3ccccc3)Oc3cccc4ccccc34)[C@@H](O)[C@H]2O)n1", "note": "(stereo partly shown) [Compound 15]", "values": [
      {"measurement": "fold superior to ribavirin, vaccinia virus replication", "setting": "Vaccinia virus (HEL)", "value": "3–5 fold"},
      {"measurement": "Cytotoxicity MCC", "setting": "uninfected cells", "value": ">100", "unit": "µM"},
      {"measurement": "fold superior to ribavirin, Punto Toro virus replication", "setting": "Punta toro virus (Vero); relative to ribavirin", "value": "3–5 fold"},
      {"measurement": "efficiency of conversion among the prodrugs", "setting": "CEM cell extract; CEM cell extract", "value": "least efficiently converted"},
      {"measurement": "conversion of isomer tR 18.8 min to tR 20.2", "setting": "CEM cell extract; [3]", "value": 10, "unit": "%"},
      {"measurement": "levels of isomer tR 18.5", "setting": "CEM cell extract; [3]", "value": "virtually unaltered"},
      {"measurement": "fold less active than ribavirin, respiratory syncytial virus", "setting": "[2]", "value": "about threefold"}
    ]},
    {"smiles": "NC(=O)c1ncn([C@@H]2O[C@H](CO)[C@@H](O)[C@H]2O)n1", "note": "[Ribavirin, 1-β-D-ribofuranosyl-1,2,4-triazole-3-carboxamide, reference compound]", "values": [
      {"measurement": "toxicity to uninfected cells", "setting": "uninfected cells; at 100 μM", "value": "non-toxic"},
      {"measurement": "Cytotoxicity MCC", "setting": "uninfected cells", "value": ">100", "unit": "µM"}
    ]}
  ]
}
